Results: ChEMBL document CHEMBL1138806, “A cyclopent-2-enecarbonyl group mimics proline at the P2 position of prolyl oligopeptidase inhibitors” (J Med Chem, 2004)

How the values were obtained:
Prolyl endopeptidase [1] = molecular target: T1, Prolyl endopeptidase (Sus scrofa, UniProt P23687); assay: Inhibitory activity against prolyl oligopeptidase of porcine brain homogenate
[2] = Partition coefficient (logP) determined in a 1-octanol-phosphate buffer system; format: physicochemical
Prolyl endopeptidase [3] = molecular target: T1, Prolyl endopeptidase; assay: Inhibitory activity against purified porcine prolyl oligopeptidase

T1 sequence (P23687 whole entry): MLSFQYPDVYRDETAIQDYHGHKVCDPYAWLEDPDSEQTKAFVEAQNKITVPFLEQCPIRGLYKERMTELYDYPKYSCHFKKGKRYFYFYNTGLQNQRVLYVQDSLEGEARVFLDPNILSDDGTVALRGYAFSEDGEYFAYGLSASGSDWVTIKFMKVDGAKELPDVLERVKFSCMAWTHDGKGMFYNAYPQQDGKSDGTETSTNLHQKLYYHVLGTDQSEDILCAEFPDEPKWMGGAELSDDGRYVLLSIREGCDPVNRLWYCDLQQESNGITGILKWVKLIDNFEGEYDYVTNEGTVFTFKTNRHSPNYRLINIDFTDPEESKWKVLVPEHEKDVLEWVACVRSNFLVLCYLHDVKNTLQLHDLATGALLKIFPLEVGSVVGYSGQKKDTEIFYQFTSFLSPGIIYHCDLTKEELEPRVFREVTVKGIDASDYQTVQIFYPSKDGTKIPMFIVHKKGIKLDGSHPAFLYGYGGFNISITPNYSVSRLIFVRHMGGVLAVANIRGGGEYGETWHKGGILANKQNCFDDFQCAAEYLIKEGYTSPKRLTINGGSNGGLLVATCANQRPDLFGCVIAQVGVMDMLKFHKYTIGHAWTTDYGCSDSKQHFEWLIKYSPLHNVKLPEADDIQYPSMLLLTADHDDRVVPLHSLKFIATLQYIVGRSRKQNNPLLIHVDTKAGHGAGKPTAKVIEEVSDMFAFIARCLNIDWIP

For `N#C[C@@H]1CCCN1C(=O)[C@@H]1CCC=C1C(=O)CCCc1ccccc1`, the IC50 (Prolyl endopeptidase [1]) was 200 pM, the logP [2] was 2.4 and the Ki (Prolyl endopeptidase [3]) was 30 pM.

`O=C(NCc1ccccc1)C1=C(C(=O)N2CCCC2)CCC1` gave an IC50 (Prolyl endopeptidase [1]) of 230000 pM.

Molecule `N#C[C@@H]1CCCN1C(=O)[C@@H]1CCCN1C(=O)CCCc1ccccc1` has a logP [2] of 1.6.

`O=C([C@@H]1CCCN1C(=O)CCCc1ccccc1)N1CCCC1` showed a logP [2] of 1.8.

Work on `O=C(NCc1ccccc1)C1=CCC[C@@H]1C(=O)N1CCC[C@H]1C(=O)CO` yielded an IC50 (Prolyl endopeptidase [1]) of 52000 pM.

In the case of `N#C[C@@H]1CCCN1C(=O)[C@H]1CCC=C1C(=O)CCCc1ccccc1`, the IC50 (Prolyl endopeptidase [1]) is reported as 5000 pM.

With `O=C(NCc1ccccc1)C1=CCC[C@H]1C(=O)N1CCC[C@H]1C(=O)CO` the IC50 (Prolyl endopeptidase [1]) was 300 pM, the logP [2] was 0.6 and the Ki (Prolyl endopeptidase [3]) was 150 pM.

`O=C(CO)[C@@H]1CCCN1C(=O)[C@@H]1CCCN1C(=O)NCc1ccccc1` gave an IC50 (Prolyl endopeptidase [1]) of 200 pM, a logP [2] of 0.2 and a Ki (Prolyl endopeptidase [3]) of 60 pM.
